Activity calls are given as the source filed them.
Assays:
[1] = target: T1, Photoreceptor-specific nuclear receptor (Homo sapiens, UniProt Q9Y5X4); type: functional
[2] = target: Peroxisome proliferator-activated receptor gamma/Nuclear receptor corepressor 2 (Homo sapiens, UniProt P37231+Q9Y618); type: functional
[3] = target: Transitional endoplasmic reticulum ATPase (Homo sapiens, UniProt P55072, C522A); experiment: C522A mutant p97 ATPase inhibitors, dose response, counter-screen for p97 inhibitor project, biochemical, luminescence (AID 1544)
[4] = target: Transitional endoplasmic reticulum ATPase (Homo sapiens, UniProt P55072); experiment: p97 ATPase inhibitors, dose response, biochemical (AID 1534)
[5] = target: T2, Heat shock factor protein 1 (Mus musculus, UniProt P38532); experiment: HSF1 potentiators in luciferase reporter cells, confirmation, cell-based, NIH3T3, luminescence, dose retest (AID 435004); type: functional;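 also: stress induced by proteasome inhibitor MG132 added 30 min after compound; luciferase reporter driven by HSF1 response element in NIH3T3 cells; actives raise luminescence as potentiators of the MG132 stress response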
T2 sequence (P38532 whole entry): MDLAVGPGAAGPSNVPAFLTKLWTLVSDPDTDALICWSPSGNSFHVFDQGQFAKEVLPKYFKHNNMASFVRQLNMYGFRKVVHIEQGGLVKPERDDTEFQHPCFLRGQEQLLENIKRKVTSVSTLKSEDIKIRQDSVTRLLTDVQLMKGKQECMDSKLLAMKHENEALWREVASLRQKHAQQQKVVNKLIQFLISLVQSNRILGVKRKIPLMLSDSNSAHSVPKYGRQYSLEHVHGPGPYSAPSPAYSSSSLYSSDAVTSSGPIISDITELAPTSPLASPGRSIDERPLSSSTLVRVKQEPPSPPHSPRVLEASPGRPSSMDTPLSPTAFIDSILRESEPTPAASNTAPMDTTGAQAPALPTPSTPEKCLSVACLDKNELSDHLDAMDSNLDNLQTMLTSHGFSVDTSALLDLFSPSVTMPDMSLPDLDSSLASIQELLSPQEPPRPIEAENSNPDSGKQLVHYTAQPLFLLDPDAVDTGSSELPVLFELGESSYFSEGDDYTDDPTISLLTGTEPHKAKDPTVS

[6] = target: T3, Replicative DNA helicase DnaB (Mycobacterium tuberculosis, UniProt P9WMR3); experiment: DnaB intein splicing inhibitors, dose response, biochemical, cell-free fluorescence (AID 449749); type: functional
T3 sequence (P9WMR3 whole entry): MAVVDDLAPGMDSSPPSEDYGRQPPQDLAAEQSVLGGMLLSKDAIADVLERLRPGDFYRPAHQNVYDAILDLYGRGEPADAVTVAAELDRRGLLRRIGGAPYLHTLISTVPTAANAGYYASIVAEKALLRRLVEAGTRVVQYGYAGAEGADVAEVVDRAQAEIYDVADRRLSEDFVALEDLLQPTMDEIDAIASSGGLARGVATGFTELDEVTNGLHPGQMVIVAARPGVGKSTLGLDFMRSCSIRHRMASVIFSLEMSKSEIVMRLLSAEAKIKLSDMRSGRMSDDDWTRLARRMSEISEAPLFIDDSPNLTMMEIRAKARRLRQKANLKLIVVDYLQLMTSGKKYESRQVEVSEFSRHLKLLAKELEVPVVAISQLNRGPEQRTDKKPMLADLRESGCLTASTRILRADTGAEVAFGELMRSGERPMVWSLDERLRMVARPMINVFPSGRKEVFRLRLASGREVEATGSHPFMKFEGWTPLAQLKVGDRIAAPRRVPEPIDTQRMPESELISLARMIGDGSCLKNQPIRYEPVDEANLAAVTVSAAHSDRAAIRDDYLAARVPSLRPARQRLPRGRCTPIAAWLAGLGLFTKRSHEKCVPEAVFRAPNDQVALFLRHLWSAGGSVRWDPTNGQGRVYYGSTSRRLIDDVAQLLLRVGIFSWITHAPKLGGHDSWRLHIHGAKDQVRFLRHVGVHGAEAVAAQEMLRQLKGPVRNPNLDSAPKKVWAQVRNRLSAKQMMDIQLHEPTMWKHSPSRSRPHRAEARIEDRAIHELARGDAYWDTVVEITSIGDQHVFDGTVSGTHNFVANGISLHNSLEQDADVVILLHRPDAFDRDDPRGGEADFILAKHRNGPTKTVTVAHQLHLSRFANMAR

Protein RecA = target: T4, Protein RecA (Mycobacterium tuberculosis, UniProt P9WHJ3); experiment: Fluorescence Cell-Free Homogeneous Dose Retest to Identify Inhibitors of RecA-Intein Splicing Activity. [Related pubchem assays (depositor defined):AID2097, AID2223, AID489010, AID492950]; type: functional
T4 sequence (P9WHJ3 whole entry): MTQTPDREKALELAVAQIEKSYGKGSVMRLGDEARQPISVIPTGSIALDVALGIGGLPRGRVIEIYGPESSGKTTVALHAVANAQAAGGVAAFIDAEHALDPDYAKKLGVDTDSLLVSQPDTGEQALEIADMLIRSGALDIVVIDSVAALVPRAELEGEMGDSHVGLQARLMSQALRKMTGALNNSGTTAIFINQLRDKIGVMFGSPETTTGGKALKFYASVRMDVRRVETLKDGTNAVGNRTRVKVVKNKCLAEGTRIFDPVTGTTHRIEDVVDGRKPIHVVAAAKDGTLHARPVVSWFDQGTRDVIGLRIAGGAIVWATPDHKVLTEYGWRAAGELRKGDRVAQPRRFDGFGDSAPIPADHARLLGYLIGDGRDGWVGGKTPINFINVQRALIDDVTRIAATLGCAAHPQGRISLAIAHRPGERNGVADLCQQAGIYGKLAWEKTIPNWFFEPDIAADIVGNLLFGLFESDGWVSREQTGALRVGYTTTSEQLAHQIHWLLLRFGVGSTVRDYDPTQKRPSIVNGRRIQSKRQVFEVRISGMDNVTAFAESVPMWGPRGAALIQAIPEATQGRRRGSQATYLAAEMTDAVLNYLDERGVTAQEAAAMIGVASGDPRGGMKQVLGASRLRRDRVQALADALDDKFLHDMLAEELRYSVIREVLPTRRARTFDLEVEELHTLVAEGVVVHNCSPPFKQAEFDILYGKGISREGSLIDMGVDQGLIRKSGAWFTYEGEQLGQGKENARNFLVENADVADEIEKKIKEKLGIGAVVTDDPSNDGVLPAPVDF

[7] = target: Ras and Rab interactor 1/Tyrosine-protein kinase ABL1 (Homo sapiens, UniProt P00519+Q13671); type: functional;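 also: biochemical TR-FRET dose-response test measuring inhibition of binding between Rin1 and Abl proteins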
[8] = target: T5, Methionyl-tRNA synthetase, putative (Trypanosoma brucei brucei, UniProt Q38C91); type: functional, Trypanosoma brucei brucei strain 927/4 GUTat10.1
T5 sequence (Q38C91 whole entry): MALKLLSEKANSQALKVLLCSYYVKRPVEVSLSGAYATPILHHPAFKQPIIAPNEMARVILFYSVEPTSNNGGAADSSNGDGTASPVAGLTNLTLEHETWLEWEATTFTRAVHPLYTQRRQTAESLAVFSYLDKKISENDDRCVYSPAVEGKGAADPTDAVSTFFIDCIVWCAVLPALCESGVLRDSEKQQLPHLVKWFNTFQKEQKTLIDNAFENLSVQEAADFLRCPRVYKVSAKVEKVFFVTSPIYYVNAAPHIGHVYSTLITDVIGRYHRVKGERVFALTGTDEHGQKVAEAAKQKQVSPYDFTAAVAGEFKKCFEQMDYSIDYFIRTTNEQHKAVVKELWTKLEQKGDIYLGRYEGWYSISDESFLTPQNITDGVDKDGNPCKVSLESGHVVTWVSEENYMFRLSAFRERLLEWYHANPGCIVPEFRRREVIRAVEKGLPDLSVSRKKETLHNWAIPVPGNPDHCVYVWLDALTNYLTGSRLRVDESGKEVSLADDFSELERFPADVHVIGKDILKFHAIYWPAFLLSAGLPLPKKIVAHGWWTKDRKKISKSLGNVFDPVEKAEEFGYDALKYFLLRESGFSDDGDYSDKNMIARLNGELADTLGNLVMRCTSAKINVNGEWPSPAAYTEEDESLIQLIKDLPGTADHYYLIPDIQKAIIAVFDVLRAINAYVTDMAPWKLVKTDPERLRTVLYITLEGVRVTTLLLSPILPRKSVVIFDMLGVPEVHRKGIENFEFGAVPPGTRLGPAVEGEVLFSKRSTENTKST

[9] = Counterscreen for inhibitors of Trypanosoma brucei methionyl tRNA synthetase (MetRS): Luminescence-based cell-based high throughput dose response assay to identify compounds that are cytotoxic to Jurkat human T lymphocyte cells.; type: functional
[10] = target: T5, Methionyl-tRNA synthetase, putative; type: functional, Trypanosoma brucei brucei strain 927/4 GUTat10.1; remark: listed apart in the source
[11] = target: E3 ubiquitin-protein ligase UHRF1 (Homo sapiens, UniProt Q96T88); experiment: Counterscreen for inhibitors of 5-meCpG-binding domain protein 2 (MBD2): TRFRET-based biochemical high throughput dose response assay to identify inhibitors of binding of ubiquitin-like with PHD and ring finger domains 1 (UHRF1) to methylated oligonucleotide.
Sequence of E3 ubiquitin-protein ligase UHRF1 (Q96T88 whole entry, the tested form may be a part): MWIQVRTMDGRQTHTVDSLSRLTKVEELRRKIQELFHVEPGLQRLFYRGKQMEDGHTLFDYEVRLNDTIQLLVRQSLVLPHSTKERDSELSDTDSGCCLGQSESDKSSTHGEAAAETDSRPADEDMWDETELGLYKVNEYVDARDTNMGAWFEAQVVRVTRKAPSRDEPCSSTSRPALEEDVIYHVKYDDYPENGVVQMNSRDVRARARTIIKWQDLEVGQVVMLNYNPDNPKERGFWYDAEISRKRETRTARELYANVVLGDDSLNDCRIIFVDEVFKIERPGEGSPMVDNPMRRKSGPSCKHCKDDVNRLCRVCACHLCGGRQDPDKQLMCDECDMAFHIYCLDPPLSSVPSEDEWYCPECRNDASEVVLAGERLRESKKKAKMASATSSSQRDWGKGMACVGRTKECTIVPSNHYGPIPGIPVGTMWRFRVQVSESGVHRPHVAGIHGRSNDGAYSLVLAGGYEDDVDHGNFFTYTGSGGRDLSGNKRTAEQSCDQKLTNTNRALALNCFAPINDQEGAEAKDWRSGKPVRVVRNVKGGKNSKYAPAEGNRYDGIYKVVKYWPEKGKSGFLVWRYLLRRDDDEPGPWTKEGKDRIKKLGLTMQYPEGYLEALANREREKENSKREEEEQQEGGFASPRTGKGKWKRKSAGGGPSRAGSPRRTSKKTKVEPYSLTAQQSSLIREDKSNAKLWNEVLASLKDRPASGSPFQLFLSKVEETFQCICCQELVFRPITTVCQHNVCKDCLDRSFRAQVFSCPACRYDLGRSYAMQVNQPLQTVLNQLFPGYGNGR

[12] = target: Tyrosyl-DNA phosphodiesterase 2 (Homo sapiens, UniProt O95551); experiment: human TDP2 enzyme inhibitors, dose response, biochemical, epi absorbance, IC50 (AID 743297)
Sequence of Tyrosyl-DNA phosphodiesterase 2 (O95551 whole entry): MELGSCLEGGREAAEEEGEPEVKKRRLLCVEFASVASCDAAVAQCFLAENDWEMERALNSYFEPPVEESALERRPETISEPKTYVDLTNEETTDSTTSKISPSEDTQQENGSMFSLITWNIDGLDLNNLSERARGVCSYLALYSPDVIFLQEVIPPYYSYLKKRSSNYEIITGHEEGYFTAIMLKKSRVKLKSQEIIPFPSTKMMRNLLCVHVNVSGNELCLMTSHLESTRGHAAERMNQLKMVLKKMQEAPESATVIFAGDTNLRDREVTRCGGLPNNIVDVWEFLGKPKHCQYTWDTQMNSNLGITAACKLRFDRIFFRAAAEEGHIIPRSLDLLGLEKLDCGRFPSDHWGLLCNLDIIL

Aspartyl aminopeptidase = Aspartyl aminopeptidase (Plasmodium falciparum 3D7, UniProt Q8I2J3)
Sequence of Aspartyl aminopeptidase (Q8I2J3 whole entry): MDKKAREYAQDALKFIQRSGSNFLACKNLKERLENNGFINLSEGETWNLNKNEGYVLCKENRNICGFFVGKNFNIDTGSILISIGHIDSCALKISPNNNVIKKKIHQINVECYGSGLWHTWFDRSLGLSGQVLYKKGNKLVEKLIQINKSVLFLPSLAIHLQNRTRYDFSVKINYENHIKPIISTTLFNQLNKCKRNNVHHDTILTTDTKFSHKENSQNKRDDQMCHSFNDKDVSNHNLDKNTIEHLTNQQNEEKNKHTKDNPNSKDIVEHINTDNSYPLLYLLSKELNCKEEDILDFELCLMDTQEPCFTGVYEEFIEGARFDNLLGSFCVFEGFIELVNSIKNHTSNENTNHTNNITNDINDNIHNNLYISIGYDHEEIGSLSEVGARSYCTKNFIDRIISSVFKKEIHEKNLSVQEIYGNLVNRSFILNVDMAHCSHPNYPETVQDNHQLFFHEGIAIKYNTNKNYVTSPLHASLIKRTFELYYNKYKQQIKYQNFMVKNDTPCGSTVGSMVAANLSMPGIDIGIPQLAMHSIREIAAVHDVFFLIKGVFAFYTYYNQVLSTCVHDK

Procathepsin L = Procathepsin L (Homo sapiens, UniProt P07711)
Sequence of Procathepsin L (P07711 whole entry): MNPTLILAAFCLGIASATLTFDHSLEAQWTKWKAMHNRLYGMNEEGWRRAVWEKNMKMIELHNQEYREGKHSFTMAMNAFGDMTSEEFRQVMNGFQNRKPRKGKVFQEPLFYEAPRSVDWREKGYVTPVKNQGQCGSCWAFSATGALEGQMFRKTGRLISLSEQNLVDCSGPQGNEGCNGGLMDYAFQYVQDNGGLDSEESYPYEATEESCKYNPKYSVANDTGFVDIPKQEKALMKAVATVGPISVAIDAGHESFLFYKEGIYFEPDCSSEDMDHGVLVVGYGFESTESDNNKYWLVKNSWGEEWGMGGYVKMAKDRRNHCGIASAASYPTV

Wee1-like protein kinase = Wee1-like protein kinase (Homo sapiens, UniProt P30291); experiment: G2/M cell cycle arrest in HeLa, late-stage follow-up, mechanism study for Wee1 degradation inhibitor project, FACS, panel member Wee1 Degradation (AID 2088)
Sequence of Wee1-like protein kinase (P30291 whole entry): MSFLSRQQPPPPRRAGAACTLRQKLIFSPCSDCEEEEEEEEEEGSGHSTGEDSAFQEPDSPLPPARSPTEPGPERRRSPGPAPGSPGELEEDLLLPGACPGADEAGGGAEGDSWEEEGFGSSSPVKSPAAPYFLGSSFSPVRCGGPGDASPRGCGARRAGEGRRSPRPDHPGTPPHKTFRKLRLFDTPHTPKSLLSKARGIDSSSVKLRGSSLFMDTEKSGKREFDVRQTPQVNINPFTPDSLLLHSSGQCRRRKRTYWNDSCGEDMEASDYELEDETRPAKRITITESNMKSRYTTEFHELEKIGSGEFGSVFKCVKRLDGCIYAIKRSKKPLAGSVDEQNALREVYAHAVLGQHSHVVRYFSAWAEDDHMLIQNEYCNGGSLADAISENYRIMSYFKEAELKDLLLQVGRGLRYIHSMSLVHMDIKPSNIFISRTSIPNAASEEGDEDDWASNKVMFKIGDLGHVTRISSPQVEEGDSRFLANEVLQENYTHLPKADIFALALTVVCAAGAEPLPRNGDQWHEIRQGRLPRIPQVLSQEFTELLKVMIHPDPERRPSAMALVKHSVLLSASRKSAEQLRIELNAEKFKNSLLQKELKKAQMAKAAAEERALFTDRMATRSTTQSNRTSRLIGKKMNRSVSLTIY

[13] = target: G2/mitotic-specific cyclin-B1 (Homo sapiens, UniProt P14635); experiment: G2/M cell cycle arrest in HeLa, late-stage follow-up, mechanism study for Wee1 degradation inhibitor project, FACS, panel member Cyclin B Degradation (AID 2088)
Sequence of G2/mitotic-specific cyclin-B1 (P14635 whole entry): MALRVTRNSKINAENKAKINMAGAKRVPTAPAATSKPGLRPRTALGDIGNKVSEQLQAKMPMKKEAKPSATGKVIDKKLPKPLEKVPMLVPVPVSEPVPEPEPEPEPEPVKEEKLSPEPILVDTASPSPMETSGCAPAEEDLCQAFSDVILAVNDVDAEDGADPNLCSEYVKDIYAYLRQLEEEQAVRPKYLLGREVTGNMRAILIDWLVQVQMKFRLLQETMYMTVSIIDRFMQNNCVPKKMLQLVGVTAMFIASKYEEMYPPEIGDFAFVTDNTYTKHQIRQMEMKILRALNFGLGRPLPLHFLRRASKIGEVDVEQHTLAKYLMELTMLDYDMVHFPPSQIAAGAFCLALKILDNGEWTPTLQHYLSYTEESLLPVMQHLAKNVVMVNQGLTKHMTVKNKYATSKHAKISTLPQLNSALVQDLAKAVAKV

[14] = target: T1, Photoreceptor-specific nuclear receptor; type: functional, cell-based
[15] = HEK293T cell cytotoxicity, dose response, cytotoxicity control for HIV Vif inhibitor project, cherry-picks (AID 652208); type: functional, cell-based
[16] = target: Eukaryotic translation initiation factor 4H (Homo sapiens, UniProt Q15056); experiment: human eIF4H binding inhibitors, primary screen, translation initiation inhibitor project, biochemical, uHTS, fluorescence polarization (AID 2012)
[17] = target: Polyadenylate-binding protein 1 (Homo sapiens, UniProt P11940); experiment: PABP poly(A) RNA binding inhibitors, primary screen, biochemical, fluorescence polarization, uHTS (AID 2014)
[18] = target: Signal transducer and activator of transcription 3 (Homo sapiens, UniProt P40763); experiment: STAT3 activators, late-stage profile, late-stage follow-up, cell-based, STAT1 reporter, BCL3 qPCR, cytotoxicity, panel member STAT3 Activation (AID 2049)
Sequence of Signal transducer and activator of transcription 3 (P40763 whole entry): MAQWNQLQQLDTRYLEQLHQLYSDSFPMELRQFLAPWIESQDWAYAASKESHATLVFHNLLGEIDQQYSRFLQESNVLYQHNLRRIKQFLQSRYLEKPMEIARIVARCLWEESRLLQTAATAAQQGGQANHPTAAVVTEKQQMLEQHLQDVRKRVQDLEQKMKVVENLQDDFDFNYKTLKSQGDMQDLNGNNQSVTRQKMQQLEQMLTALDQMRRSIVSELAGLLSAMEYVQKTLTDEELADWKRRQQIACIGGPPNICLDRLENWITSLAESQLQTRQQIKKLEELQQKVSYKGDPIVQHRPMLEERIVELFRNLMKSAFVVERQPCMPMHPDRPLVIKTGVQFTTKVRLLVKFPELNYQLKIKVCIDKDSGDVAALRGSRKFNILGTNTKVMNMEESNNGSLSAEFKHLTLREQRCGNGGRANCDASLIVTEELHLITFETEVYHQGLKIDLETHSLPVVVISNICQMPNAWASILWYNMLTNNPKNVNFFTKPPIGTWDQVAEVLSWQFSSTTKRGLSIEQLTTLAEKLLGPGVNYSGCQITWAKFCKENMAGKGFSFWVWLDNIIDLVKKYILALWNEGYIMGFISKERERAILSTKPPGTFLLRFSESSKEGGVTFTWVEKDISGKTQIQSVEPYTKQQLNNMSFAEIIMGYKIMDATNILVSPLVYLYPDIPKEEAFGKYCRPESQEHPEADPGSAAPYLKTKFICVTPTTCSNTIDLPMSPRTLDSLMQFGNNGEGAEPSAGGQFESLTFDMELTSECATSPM

T1 sequence (Q9Y5X4 whole entry): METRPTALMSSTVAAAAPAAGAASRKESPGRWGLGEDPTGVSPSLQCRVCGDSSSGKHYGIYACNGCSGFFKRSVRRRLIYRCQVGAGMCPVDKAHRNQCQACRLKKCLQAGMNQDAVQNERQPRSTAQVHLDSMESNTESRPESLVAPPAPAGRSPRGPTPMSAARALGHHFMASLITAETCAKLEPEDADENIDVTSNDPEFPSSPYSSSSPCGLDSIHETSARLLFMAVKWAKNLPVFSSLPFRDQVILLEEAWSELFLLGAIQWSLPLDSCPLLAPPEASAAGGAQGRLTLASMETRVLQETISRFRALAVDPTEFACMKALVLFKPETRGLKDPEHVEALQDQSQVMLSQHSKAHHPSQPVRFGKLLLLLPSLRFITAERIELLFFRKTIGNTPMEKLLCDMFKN

O=C(C1=C(O)C(=O)N(CC2CCCO2)C1c1ccc(Cl)cc1Cl)c1ccco1 (configuration not stated)
IC50 [1]: > 39.8 µM (not active) | IC50 [2]: 13.7 µM (not active)

O=S(=O)(Nc1cc2nc3ccccc3nc2n1Cc1ccccc1)c1ccc(Cl)cc1
IC50 [3]: > 50 µM (not active) | IC50 [4]: > 50 µM (not active) | EC50 [5]: > 260 µM (inactive) | AC50 [6]: 10.1 µM (active) | EC50 (Protein RecA): 1.5 µM (active) | IC50 [7]: > 73.5 µM (inactive) | IC50 [8]: 4.93 µM (active) | IC50 [9]: 28.8 µM (inactive) | IC50 [10]: 2.46 µM (active) | IC50 [11]: > 43.8 µM (inactive) | IC50 [12]: > 14.3 µM (inactive)

O=C(NC(=S)Nn1cnnc1)c1ccccc1Br
IC50 (Aspartyl aminopeptidase): 1.5 µM (active) | IC50 (Procathepsin L): > 59.6 µM (not active)

Cc1ccnc(NC(=O)CCCOc2cc(=O)n(C)c3ccccc23)c1
EC50 (Wee1-like protein kinase): > 6.19 µM (active) | EC50 [13]: > 55.7 µM (inactive) | IC50 [14]: 2.97 µM (active) | AC50 [15]: > 52 µM (inactive)

CCN(CC)CCCN=C1N[C@@H](c2ccccc2)C(C(=O)OC)=C(C)N1CC
IC50 [16]: > 100 µM (inactive) | IC50 [17]: 10.6 µM (active)

COc1cc(OC)c(NC(=O)c2cc(CN3CCCC3)on2)cc1Cl
EC50 [18]: > 55.7 µM (inactive)

From ChEMBL document CHEMBL1201862, “PubChem BioAssay data set” (2004)
